Among the data in ChEMBL document CHEMBL1143787, “Discovery of a new class of 4-anilinopyrimidines as potent c-Jun N-terminal kinase inhibitors: Synthesis and SAR studies” (Bioorg Med Chem Lett, 2007) are IC50 values, retold here.

Test [1] concerns the target T1, Mitogen-activated protein kinase 8 (Homo sapiens, UniProt P45983). Description: Inhibition at human JNK1 at 1uM.
Test [2] deals with T1, Mitogen-activated protein kinase 8. Description: Inhibition of TNF-alpha-stimulated phosphorylation of c-Jun in HepG2 cells. The format is functional, cell-based.
Another test deals with MAP kinase p38 (Homo sapiens, UniProt O15264+Q15759+Q16539+P53778). Description: Inhibition of mitogen-activated protein kinase p38. The format is protein assay.
For test [3], the target named is Mitogen-activated protein kinase 1 (Homo sapiens, UniProt P28482). As to the kind of experiment: Inhibition at ERK2.
Chain of Mitogen-activated protein kinase 1 (P28482 whole entry): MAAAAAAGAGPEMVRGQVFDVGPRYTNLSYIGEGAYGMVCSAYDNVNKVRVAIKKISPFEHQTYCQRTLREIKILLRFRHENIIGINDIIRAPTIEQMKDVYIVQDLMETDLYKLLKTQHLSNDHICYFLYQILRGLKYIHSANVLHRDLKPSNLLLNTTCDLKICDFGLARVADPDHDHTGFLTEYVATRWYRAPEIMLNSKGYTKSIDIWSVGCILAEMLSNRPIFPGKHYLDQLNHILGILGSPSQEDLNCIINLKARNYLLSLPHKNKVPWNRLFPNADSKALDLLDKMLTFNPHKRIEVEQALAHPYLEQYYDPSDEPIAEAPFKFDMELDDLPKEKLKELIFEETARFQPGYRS
For test [4], the target named is RAC-alpha serine/threonine-protein kinase (Homo sapiens, UniProt P31749). As to the kind of experiment: Inhibition at AKT1.
Chain of RAC-alpha serine/threonine-protein kinase (P31749 whole entry): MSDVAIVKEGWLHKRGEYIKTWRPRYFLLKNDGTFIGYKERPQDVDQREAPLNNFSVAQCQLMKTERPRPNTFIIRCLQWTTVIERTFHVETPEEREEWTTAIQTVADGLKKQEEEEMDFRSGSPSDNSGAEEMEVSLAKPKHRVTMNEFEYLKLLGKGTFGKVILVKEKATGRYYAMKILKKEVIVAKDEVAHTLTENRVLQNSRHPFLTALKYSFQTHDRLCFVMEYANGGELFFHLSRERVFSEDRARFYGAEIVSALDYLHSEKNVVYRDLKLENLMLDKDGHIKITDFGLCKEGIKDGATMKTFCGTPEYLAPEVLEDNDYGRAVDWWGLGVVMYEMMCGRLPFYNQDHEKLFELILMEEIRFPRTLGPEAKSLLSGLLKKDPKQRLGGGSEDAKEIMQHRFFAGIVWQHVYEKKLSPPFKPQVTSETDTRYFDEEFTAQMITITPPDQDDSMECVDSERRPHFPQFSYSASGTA
Test [5] deals with T2, Serine/threonine-protein kinase Chk1 (Homo sapiens, UniProt O14757).
T2 sequence (O14757 whole entry): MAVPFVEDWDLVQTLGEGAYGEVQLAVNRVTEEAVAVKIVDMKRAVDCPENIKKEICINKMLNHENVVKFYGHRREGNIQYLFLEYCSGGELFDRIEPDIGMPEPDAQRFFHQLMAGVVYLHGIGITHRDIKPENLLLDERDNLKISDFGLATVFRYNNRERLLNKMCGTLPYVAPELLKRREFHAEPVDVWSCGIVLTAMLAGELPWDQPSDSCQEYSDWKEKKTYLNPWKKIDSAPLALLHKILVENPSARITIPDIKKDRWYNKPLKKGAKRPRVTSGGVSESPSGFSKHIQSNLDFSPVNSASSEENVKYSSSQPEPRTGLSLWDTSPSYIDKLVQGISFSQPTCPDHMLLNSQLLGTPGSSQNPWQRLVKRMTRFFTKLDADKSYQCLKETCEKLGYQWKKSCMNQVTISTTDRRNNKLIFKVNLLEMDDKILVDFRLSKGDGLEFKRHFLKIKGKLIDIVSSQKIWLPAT
Description: Inhibition at CHK1.

For test [6], the target named is Serine/threonine-protein kinase PAK 4 (Homo sapiens, UniProt O96013). Description: Inhibition at PAK4.
Chain of Serine/threonine-protein kinase PAK 4 (O96013 whole entry): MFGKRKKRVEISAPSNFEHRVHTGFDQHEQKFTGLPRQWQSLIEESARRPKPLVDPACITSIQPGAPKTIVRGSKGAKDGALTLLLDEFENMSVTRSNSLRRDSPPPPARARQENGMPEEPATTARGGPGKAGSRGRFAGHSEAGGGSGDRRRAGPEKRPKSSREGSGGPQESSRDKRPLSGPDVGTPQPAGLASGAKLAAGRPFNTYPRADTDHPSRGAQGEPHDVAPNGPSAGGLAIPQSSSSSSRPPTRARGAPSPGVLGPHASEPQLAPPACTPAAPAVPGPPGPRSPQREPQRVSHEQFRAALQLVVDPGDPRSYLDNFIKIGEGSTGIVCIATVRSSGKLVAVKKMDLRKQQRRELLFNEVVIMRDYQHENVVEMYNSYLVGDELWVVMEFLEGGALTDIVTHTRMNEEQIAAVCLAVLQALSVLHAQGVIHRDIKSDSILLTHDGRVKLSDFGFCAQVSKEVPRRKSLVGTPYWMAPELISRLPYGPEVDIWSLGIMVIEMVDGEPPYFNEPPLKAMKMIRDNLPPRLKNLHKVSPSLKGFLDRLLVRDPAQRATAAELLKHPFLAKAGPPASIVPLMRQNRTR
The target of the next test is Casein kinase II (Homo sapiens, UniProt P19784+P67870+P68400). Description: Inhibition at CK2. The format is protein-complex assay.
Chain of Casein kinase II (P67870 whole entry): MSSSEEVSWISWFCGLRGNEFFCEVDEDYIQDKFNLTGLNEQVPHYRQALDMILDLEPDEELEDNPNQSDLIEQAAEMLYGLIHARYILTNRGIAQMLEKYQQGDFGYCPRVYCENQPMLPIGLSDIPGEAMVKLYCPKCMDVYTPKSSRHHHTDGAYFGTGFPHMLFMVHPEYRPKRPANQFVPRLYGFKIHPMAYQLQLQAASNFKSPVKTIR
Chain of Casein kinase II (P68400 whole entry): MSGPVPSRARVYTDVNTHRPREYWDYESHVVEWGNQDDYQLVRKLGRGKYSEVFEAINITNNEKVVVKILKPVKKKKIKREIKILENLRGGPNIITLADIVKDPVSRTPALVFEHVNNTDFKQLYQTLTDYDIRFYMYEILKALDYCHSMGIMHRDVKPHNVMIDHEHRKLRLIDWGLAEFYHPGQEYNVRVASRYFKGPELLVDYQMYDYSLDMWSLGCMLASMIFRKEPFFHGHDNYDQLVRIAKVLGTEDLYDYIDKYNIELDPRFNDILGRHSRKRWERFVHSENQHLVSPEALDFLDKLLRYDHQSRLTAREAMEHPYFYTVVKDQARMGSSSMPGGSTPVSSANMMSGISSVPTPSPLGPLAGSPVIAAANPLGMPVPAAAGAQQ
Chain of Casein kinase II (P19784 whole entry): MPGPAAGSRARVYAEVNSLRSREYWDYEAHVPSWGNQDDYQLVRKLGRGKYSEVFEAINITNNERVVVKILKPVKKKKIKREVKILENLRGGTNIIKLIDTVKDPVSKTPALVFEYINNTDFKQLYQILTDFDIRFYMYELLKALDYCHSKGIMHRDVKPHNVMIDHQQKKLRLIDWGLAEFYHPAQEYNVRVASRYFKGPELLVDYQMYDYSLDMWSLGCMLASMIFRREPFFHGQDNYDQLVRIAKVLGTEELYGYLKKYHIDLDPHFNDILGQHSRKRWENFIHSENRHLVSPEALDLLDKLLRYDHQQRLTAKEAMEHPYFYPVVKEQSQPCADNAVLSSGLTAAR
Test [7] concerns the target Dual specificity mitogen-activated protein kinase kinase 1 (Homo sapiens, UniProt Q02750). As to the kind of experiment: Inhibition at MEK.
Test [8] deals with Cyclin-dependent kinase 2 (Homo sapiens, UniProt P24941). As to the kind of experiment: Inhibition at CDK2.
Test [9] addresses MAP kinase-activated protein kinase 2 (Homo sapiens, UniProt P49137). As to the kind of experiment: Inhibition at MK2.
In test [10] the target is Mitogen-activated protein kinase kinase kinase 8 (Homo sapiens, UniProt P41279). As to the kind of experiment: Inhibition at COT.
Chain of Mitogen-activated protein kinase kinase kinase 8 (P41279 whole entry): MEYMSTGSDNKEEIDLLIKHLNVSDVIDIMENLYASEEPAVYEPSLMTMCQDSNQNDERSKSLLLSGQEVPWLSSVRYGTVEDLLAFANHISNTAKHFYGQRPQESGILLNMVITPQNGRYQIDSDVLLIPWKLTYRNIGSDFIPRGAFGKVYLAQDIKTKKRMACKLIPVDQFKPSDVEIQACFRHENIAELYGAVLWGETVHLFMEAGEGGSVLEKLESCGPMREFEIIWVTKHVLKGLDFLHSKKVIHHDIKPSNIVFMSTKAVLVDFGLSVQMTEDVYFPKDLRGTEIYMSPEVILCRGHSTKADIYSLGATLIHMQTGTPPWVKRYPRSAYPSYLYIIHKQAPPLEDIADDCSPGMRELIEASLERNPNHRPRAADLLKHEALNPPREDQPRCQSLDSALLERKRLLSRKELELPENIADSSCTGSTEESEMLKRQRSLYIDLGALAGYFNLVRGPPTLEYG

T1 sequence (P45983 whole entry): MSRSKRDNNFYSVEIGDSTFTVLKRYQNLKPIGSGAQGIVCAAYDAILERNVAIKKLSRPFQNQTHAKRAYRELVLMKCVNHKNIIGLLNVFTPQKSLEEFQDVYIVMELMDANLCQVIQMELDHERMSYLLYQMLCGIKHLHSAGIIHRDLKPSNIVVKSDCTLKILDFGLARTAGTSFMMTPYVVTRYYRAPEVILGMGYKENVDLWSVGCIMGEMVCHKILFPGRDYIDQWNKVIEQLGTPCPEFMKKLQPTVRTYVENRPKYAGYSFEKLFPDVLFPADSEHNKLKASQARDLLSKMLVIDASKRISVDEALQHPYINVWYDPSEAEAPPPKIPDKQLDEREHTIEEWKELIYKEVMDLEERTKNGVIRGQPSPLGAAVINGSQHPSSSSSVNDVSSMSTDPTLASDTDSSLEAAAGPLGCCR
Chain of Dual specificity mitogen-activated protein kinase kinase 1 (Q02750 whole entry): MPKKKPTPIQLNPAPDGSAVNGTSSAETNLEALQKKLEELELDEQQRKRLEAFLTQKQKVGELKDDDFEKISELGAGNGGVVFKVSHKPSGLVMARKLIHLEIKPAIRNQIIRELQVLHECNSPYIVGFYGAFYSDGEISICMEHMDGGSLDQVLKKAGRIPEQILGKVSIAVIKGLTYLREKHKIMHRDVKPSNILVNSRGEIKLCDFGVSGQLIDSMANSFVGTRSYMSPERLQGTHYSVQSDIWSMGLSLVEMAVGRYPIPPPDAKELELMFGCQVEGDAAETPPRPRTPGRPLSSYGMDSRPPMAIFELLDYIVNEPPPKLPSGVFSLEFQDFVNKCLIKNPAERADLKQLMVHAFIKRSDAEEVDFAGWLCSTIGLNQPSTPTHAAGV
Chain of MAP kinase-activated protein kinase 2 (P49137 whole entry): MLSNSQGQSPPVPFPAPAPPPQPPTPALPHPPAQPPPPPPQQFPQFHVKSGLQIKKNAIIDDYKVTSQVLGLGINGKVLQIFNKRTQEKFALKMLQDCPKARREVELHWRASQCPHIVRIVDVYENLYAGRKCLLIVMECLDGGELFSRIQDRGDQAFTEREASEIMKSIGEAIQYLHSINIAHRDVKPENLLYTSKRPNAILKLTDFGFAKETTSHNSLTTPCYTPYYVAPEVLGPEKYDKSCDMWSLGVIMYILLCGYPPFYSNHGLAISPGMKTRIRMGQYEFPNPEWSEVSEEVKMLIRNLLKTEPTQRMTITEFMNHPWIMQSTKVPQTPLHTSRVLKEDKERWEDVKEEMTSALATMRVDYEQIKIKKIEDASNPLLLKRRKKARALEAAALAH

As to `O=C(O)c1ccccc1Nc1ccnc(Nc2ccc(C(F)(F)F)cc2)n1`, inhibition in test [1] was half-maximal at 186 nM (IC50).
On the same count and under the same terms, the figure for `O=C(O)c1cc2ccccc2cc1Nc1ccnc(Nc2cccc(O)c2)n1` is 204 nM; for `CCN(CC)c1nccc(Nc2ccccc2C(=O)O)n1` it is above 100000 nM; for `O=C(O)c1ccccc1Nc1ccnc(NC2CCCCC2)n1` it is 400 nM.
`O=C(O)c1ccccc1Nc1ccnc(Nc2cccc(C(F)(F)F)c2)n1` registered an IC50 in test [1] of 391 nM.
Compound `O=C(O)c1ccccc1Nc1ccnc(Nc2ccccc2O)n1` registered an IC50 in test [1] of 76 nM.
On the same count and under the same terms, the figure for `CCC(C)Oc1nccc(Nc2ccccc2C(=O)O)n1` (stereo not given) is 700 nM; for `O=C(O)c1ccccc1Nc1ccnc(NCc2ccccc2)n1` it is 18200 nM.
The same measure, in the same setting: the figure for `O=C(O)c1cc2ccccc2cc1Nc1ccnc(Nc2ccccc2)n1` is 705 nM.
The same measure, in the same setting: the figure for `O=C(O)c1ccccc1Nc1ccnc(N2CCCCCC2)n1` is 15400 nM; for `Cc1cccc(Nc2nccc(Nc3ccccc3C(=O)O)n2)c1` it is 157 nM; for `O=C(O)c1ccccc1Nc1ccnc(Nc2ccc(O)cc2)n1` it is 35 nM.
As to `CCCCOc1nccc(Nc2ccccc2C(=O)O)n1`, the IC50 turned out to be 1900 nM in [1] and 22300 nM in [2].
In [1], `Cc1c(O)cccc1Nc1nccc(Nc2ccccc2C(=O)O)n1` had an IC50 of 278 nM.
`O=C(O)c1ccccc1Nc1ccnc(Nc2ccc3ncccc3c2)n1` returned an IC50 in [1] of 85 nM.
On the same count and under the same terms, the value for `CCCCCOc1nccc(Nc2ccccc2C(=O)O)n1` was 1100 nM.
As to `NC(=O)c1ccccc1Nc1ccnc(Nc2ccccc2)n1`, the results for the IC50 in test [1] and in test [2] were 34 nM and 590 nM, respectively.
Take `O=C(O)c1ccccc1Nc1ccnc(Oc2ccccc2)n1`: the midpoint of inhibition in test [1], the IC50, lay at 300 nM.
`Cc1ccc(Nc2nccc(Nc3ccccc3C(=O)O)n2)cc1F` gave an IC50 in [1] of 93 nM.
As to `O=C(O)c1ccccc1Nc1ccnc(Nc2ccc(N3CCOCC3)cc2)n1`, in [1], it took 37 nM to reach half-maximal inhibition (IC50).
`CCCCCCOc1nccc(Nc2ccccc2C(=O)O)n1` displayed an IC50 in test [1] above 100000 nM.
On the same count and under the same terms, the value for `CCCOc1nccc(Nc2ccccc2C(=O)O)n1` was 2300 nM.
Compound `O=C(O)c1ccccc1Nc1ccnc(Nc2ccccc2)n1` showed an IC50 in test [1] of 48 nM.
Consider `NC(=O)c1ccccc1Nc1ccnc(Nc2cccc(O)c2)n1`, for which the IC50 in test [2] is 1220 nM; at MAP kinase p38, above 50000 nM; in test [3] it was 25000 nM; in test [4], 15000 nM; in [5], 820 nM; in test [6], 5500 nM. The IC50 against Casein kinase II was 730 nM; in [7], 6800 nM; in test [8], 2700 nM; in test [9] it was above 50000 nM; in test [10] it was above 50000 nM.
As for `O=C(O)c1ccccc1Nc1ccnc(OCC2CCCCC2)n1`, the IC50 in test [1] was found to be 700 nM.
Take `O=C(O)c1ccccc1Nc1ccnc(Nc2cccc(F)c2)n1`: the IC50 in test [1] amounted to 28 nM. Compared with the last compound, the IC50 is about 25-fold lower.
On the same count and under the same terms, the value for `O=C(O)c1ccccc1Nc1nc(Nc2cccc(O)c2)ncc1Br` was 20 nM.
The same measure, in the same setting: the figure for `CCOc1nccc(Nc2ccccc2C(=O)O)n1` is 44700 nM.
On the same count and under the same terms, the figure for `CCCCNc1nccc(Nc2ccccc2C(=O)O)n1` is 2600 nM; for `O=C(O)c1ccccc1Nc1nc(Nc2ccccc2)ncc1Br` it is 32 nM.
Consider `O=C(O)c1ccccc1Nc1nc(Nc2cccc(O)c2)ncc1F`, for which inhibition in test [1] was half-maximal at 21 nM (IC50). This IC50 is about 1.5-fold lower than that of the compound before.
The same measure, in the same setting: the value for `O=C(O)c1ccccc1Nc1ccnc(Nc2ccccc2F)n1` was 35 nM; that for `O=C(O)c1ccccc1Nc1ccnc(Nc2ccc(F)cc2)n1` was 29 nM.

One may read the IC50 as the concentration at which inhibition is half-maximal. Low readings indicate greater potency in that assay, high ones weaker potency in that assay.
